This assay has as its target LXRβ (Homo sapiens (Human), UniProt P55055). The experiment in a line: In vitro assay LXRβ: PathHunter NHR CHO cells, LXRβ / Steroid Receptor Co-activator Peptide enzyme fragment complementation. Type of assay: cell-based. The following applies: PathHunter NHR CHO cells, full-length human LXRβ and SRCP, chemiluminescent signal; read-out: LXRβ PPI. The procedure:
PathHunter NHR CHO cells stably transfected with tagged full-length human LXRβ and a nuclear fusion protein containing Steroid Receptor Co-activator Peptide (SRCP). The full-length human LXRβ was tagged with the ProLink™ component of the DiscoverX Enzyme Fragment Complementation (EFC) system and the SRCP domain is fused to the enzyme acceptor component (EA) expressed in the nucleus. Cells were seeded in a total volume of 20 μL into white walled, 384-well microplates and incubated at 37° C. overnight prior to testing. Assay media contained charcoal-dextran filtered serum to reduce the level of hormones present. Final assay vehicle concentration was 1%. […] Microplates were read following signal generation with a PerkinElmer Envision instrument for chemiluminescent signal detection.

Structures are written as SMILES. Bounds are passed on as bounds.

Sequence of LXRβ (P55055 whole entry, the tested form may be a part): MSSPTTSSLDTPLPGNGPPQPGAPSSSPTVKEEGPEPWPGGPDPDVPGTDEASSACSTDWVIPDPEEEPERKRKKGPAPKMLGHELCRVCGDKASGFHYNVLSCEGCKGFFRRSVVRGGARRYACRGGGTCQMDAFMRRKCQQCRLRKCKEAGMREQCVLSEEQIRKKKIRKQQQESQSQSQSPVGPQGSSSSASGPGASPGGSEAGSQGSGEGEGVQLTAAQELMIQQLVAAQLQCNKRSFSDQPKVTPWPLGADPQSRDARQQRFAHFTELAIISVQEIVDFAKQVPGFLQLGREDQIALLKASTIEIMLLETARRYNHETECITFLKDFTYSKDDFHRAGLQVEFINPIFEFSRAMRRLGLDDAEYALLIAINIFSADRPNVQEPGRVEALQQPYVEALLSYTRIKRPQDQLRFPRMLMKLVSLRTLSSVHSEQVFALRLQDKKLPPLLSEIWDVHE

In the case of `C[C@H](CCC(=O)N1CC(C)(C)[C@@H]2COC[C@@H]21)[C@H]1CC[C@H]2[C@@H]3CC=C4C[C@@H](O)CC[C@]4(C)[C@H]3CC[C@]12C` [Example 138, (4R)-1-(3,3-dimethylhexahydro-1H-furo[3,4-b]pyrrol-1-yl)-4-((3S,8S,9S,10R,13R,14S,17R)-3-hydroxy-10,13-dimethyl-2,3,4,7,8,9,10,11,12,13,14,15,16,17-tetradecahydro-1H-cyclopenta[a]phenanthren-17-yl)pentan-1-one], the EC50 fell in the range of 0.25 to 1 µM.
With `CON(C)C(=O)[C@H](C)C[C@@H](C)[C@H]1CC[C@H]2[C@@H]3CC=C4C[C@@H](O)CC[C@]4(C)[C@H]3CC[C@]12C` [Example 141, (2R,4R)-4-[(1R,3aS,3bS,7S,9aR,9bS,11aR)-7-hydroxy-9a,11a-dimethyl-2,3,3a,3b,4,6,7,8,9,9a,9b,10,11,11a-tetradecahydro-1H-cyclopenta[a]phenanthren-1-yl]-N-methoxy-N,2-dimethylpentanamide] the figure was greater than 10 µM.
With `C[C@H](OC(=O)CN(C)C)[C@H]1CC[C@H]2[C@@H]3CC=C4C[C@@H](O)CC[C@]4(C)[C@H]3CC[C@]12C` [Example 143, (S)-1-((3S,8S,9S,10R,13S,14S,17S)-3-hydroxy-10,13-dimethyl-2,3,4,7,8,9,10,11,12,13,14,15,16,17-tetradecahydro-1H-cyclopenta[a]phenanthren-17-yl)ethyl dimethylglycinate] the figure was greater than 10 µM.
With `C[C@H](OC(=O)C(N)=O)[C@H]1CC[C@H]2[C@@H]3CC=C4C[C@@H](O)CC[C@]4(C)[C@H]3CC[C@]12C` [Example 144, (S)-1-((3S,8S,9S,10R,13S,14S,17S)-3-hydroxy-10,13-dimethyl-2,3,4,7,8,9,10,11,12,13,14,15,16,17-tetradecahydro-1H-cyclopenta[a]phenanthren-17-yl)ethyl 2-amino-2-oxoacetate] the figure was greater than 10 µM; with `CNC(=O)C(=O)O[C@@H](C)[C@H]1CC[C@H]2[C@@H]3CC=C4C[C@@H](O)CC[C@]4(C)[C@H]3CC[C@]12C` [Example 145, (S)-1-((3S,8S,9S,10R,13S,14S,17S)-3-hydroxy-10,13-dimethyl-2,3,4,7,8,9,10,11,12,13,14,15,16,17-tetradecahydro-1H-cyclopenta[a]phenanthren-17-yl)ethyl 2-(methylamino)-2-oxoacetate], greater than 10 µM; with `C[C@H](CCc1ccnnc1)[C@H]1CC[C@H]2[C@@H]3CC=C4C[C@@H](O)CC[C@]4(C)[C@H]3CC[C@]12C` [Example 170, (1R,3aS,3bS,7S,9aR,9bS,11aR)-9a,11a-dimethyl-1-[(2R)-4-(pyridazin-4-yl)butan-2-yl]-1H,2H,3H,3aH,3bH,4H,6H,7H,8H,9H,9aH,9bH,10H,11H,11aH-cyclopenta[a]phenanthren-7-ol], greater than 10 µM.
Consider `C[C@H](CCC(=O)N1CCN(c2cnn(C)c2)CC1)[C@H]1CC[C@H]2[C@@H]3CC=C4C[C@@H](O)CC[C@]4(C)[C@H]3CC[C@]12C` [Example 214, (R)-4-((3S,8S,9S,10R,13R,14S,17R)-3-hydroxy-10,13-dimethyl-2,3,4,7,8,9,10,11,12,13,14,15,16,17-tetradecahydro-1H-cyclopenta[a]phenanthren-17-yl)-1-(4-(1-methyl-1H-pyrazol-4-yl)piperazin-1-yl)pentan-1-one], for which the EC50 is greater than 10 µM.
With `C[C@H](CCC(=O)N1CC[C@H](Oc2ccncn2)C1)[C@H]1CC[C@H]2[C@@H]3CC=C4C[C@@H](O)CC[C@]4(C)[C@H]3CC[C@]12C` [Example 216, (4R)-4-[(1R,3aS,3bS,7S,9aR,9bS,11aR)-7-hydroxy-9a,11a-dimethyl-1H,2H,3H,3aH,3bH,4H,6H,7H,8H,9H,9aH,9bH,10H,11H,11aH-cyclopenta[a]phenanthren-1-yl]-1-[(3S)-3-(pyrimidin-4-yloxy)pyrrolidin-1-yl]pentan-1-one] the figure was greater than 10 µM; with `C[C@H](CCC(=O)N1CCC[C@@H](Oc2ccncn2)C1)[C@H]1CC[C@H]2[C@@H]3CC=C4C[C@@H](O)CC[C@]4(C)[C@H]3CC[C@]12C` [Example 217, (4R)-4-[(1R,3aS,3bS,7S,9aR,9bS,11aR)-7-hydroxy-9a,11a-dimethyl-1H,2H,3H,3aH,3bH,4H,6H,7H,8H,9H,9aH,9bH,10H,11H,11aH-cyclopenta[a]phenanthren-1-yl]-1-[(3R)-3-(pyrimidin-4-yloxy)piperidin-1-yl]pentan-1-one], greater than 10 µM.
With `C[C@H](CCC(=O)N1CCC[C@H](Oc2ccncn2)C1)[C@H]1CC[C@H]2[C@@H]3CC=C4C[C@@H](O)CC[C@]4(C)[C@H]3CC[C@]12C` [Example 218, (R)-4-((3S,8S,9S,10R,13R,14S,17R)-3-hydroxy-10,13-dimethyl-2,3,4,7,8,9,10,11,12,13,14,15,16,17-tetradecahydro-1H-cyclopenta[a]phenanthren-17-yl)-1-((S)-3-(pyrimidin-4-yloxy)piperidin-1-yl)pentan-1-one] the figure was 0.25 to 1 µM; with `C[C@H](CCC(=O)N1CCC(Oc2cccnc2)CC1)[C@H]1CC[C@H]2[C@@H]3CC=C4C[C@@H](O)CC[C@]4(C)[C@H]3CC[C@]12C` [Example 219, (R)-4-((3S,8S,9S,10R,13R,14S,17R)-3-hydroxy-10,13-dimethyl-2,3,4,7,8,9,10,11,12,13,14,15,16,17-tetradecahydro-1H-cyclopenta[a]phenanthren-17-yl)-1-(4-(pyridin-3-yloxy)piperidin-1-yl)pentan-1-one], greater than 10 µM.
For `C[C@H](CCC(=O)N1CCC(Oc2cnccn2)CC1)[C@H]1CC[C@H]2[C@@H]3CC=C4C[C@@H](O)CC[C@]4(C)[C@H]3CC[C@]12C` [Example 220, (R)-4-((3S,8S,9S,10R,13R,14S,17R)-3-hydroxy-10,13-dimethyl-2,3,4,7,8,9,10,11,12,13,14,15,16,17-tetradecahydro-1H-cyclopenta[a]phenanthren-17-yl)-1-(4-(pyrazin-2-yloxy)piperidin-1-yl)pentan-1-one], the EC50 lay in the range of 1 to 10 µM.
The figure for `C[C@H](CCC(=O)N1CCC(Oc2ccncn2)CC1)[C@H]1CC[C@H]2[C@@H]3CC=C4C[C@@H](O)CC[C@]4(C)[C@H]3CC[C@]12C` [Example 221, (4R)-4-[(1R,3aS,3bS,7S,9aR,9bS,11aR)-7-hydroxy-9a,11a-dimethyl-1H,2H,3H,3aH,3bH,4H,6H,7H,8H,9H,9aH,9bH,10H,11H,11aH-cyclopenta[a]phenanthren-1-yl]-1-[4-(pyrimidin-4-yloxy)piperidin-1-yl]pentan-1-one] is 1 to 10 µM; for `C[C@H](CCC(=O)N1CCN(c2cncnc2)CC1)[C@H]1CC[C@H]2[C@@H]3CC=C4C[C@@H](O)CC[C@]4(C)[C@H]3CC[C@]12C` [Example 222, (R)-4-((3S,8S,9S,10R,13R,14S,17R)-3-hydroxy-10,13-dimethyl-2,3,4,7,8,9,10,11,12,13,14,15,16,17-tetradecahydro-1H-cyclopenta[a]phenanthren-17-yl)-1-(4-(pyrimidin-5-yl)piperazin-1-yl)pentan-1-one] it is greater than 10 µM; for `C[C@H](CCC(=O)N1CCN(Cc2cnn(C)c2)CC1)[C@H]1CC[C@H]2[C@@H]3CC=C4C[C@@H](O)CC[C@]4(C)[C@H]3CC[C@]12C` [Example 223, (R)-4-((3S,8S,9S,10R,13R,14S,17R)-3-hydroxy-10,13-dimethyl-2,3,4,7,8,9,10,11,12,13,14,15,16,17-tetradecahydro-1H-cyclopenta[a]phenanthren-17-yl)-1-(4-((1-methyl-1H-pyrazol-4-yl)methyl)piperazin-1-yl)pentan-1-one] it is greater than 10 µM.
With `C[C@H](CCC(=O)N1CCN(Cc2cncnc2)CC1)[C@H]1CC[C@H]2[C@@H]3CC=C4C[C@@H](O)CC[C@]4(C)[C@H]3CC[C@]12C` [Example 224, (4R)-4-[(1R,3aS,3bS,7S,9aR,9bS,11aR)-7-hydroxy-9a,11a-dimethyl-1H,2H,3H,3aH,3bH,4H,6H,7H,8H,9H,9aH,9bH,10H,11H,11aH-cyclopenta[a]phenanthren-1-yl]-1-{4-[(pyrimidin-5-yl)methyl]piperazin-1-yl}pentan-1-one] the figure was greater than 10 µM; with `Cc1nnc(N2CCN(C(=O)CC[C@@H](C)[C@H]3CC[C@H]4[C@@H]5CC=C6C[C@@H](O)CC[C@]6(C)[C@H]5CC[C@]34C)CC2)s1` [Example 225, (R)-4-((3S,8S,9S,10R,13R,14S,17R)-3-hydroxy-10,13-dimethyl-2,3,4,7,8,9,10,11,12,13,14,15,16,17-tetradecahydro-1H-cyclopenta[a]phenanthren-17-yl)-1-(4-(5-methyl-1,3,4-thiadiazol-2-yl)piperazin-1-yl)pentan-1-one], greater than 10 µM; with `C[C@H](CCC(=O)N1CCN(c2ccnn2C)CC1)[C@H]1CC[C@H]2[C@@H]3CC=C4C[C@@H](O)CC[C@]4(C)[C@H]3CC[C@]12C` [Example 226, (R)-4-((3S,8S,9S,10R,13R,14S,17R)-3-hydroxy-10,13-dimethyl-2,3,4,7,8,9,10,11,12,13,14,15,16,17-tetradecahydro-1H-cyclopenta[a]phenanthren-17-yl)-1-(4-(1-methyl-1H-pyrazol-5-yl)piperazin-1-yl)pentan-1-one], greater than 10 µM.

Source of the values: patent US20230340011A1 (Asteroid Therapeutics, priority 2022, published 2023).
